From PubChem BioAssay AID2060627 (Molecular Pharmacology Branch, DTP, NCI, 2025)
“And” between values parts separate entries of the source, which are not always exact repeats. Equal entries are not always repeated.

Test system: 156681-154-R-J1-PDC complex spheroid viability
Assay: Anticancer human tumor 156681-154-R-J1-PDC patient-derived melanoma cell line growth inhibition [CLK]
Conditions: for viability, T/C: stronger effect = lower value
Description: A high-throughput screen of multi-cell type tumor spheroids was designed to identify active combinations of […] and targeted small molecules. Complex spheroids include a stromal component modeled by human endothelial cells (HUVEC) and fibroblasts modeled by human mesenchymal stem cells (MSCs). The concentration ranges selected for each drug and investigational agent were based upon clinically achievable concentrations if the clinical Cmax of the agent was known.
Compounds. The drugs and investigational agents: cirtuvivint (SM08502; NSC835563), CC-671 (NSC850746), vemurafenib (NSC761431), tapotoclax (NSC804041), sotorasib (NSC818433), adagrasib (NSC831453), MRTX-1133 (NSC836407), BAY2416964 (NSC825713), copanlisib (NSC816437), inavolisib (NSC800729), abemaciclib (NSC768073), osimertinib (NSC779217), entinostat (NSC756642), eltanexor (KPT-8602, NSC794443), venetoclax (NSC766270), ceralasertib (NSC777638), bortezomib (NSC756655), olaparib (NSC753686), talazoparib (NSC767125), alisertib (NSC759677), peposertib (NSC802822), gemcitabine (NSC613327), 5-fluorouracil (NSC19893), SN-38 (NSC673596), oxaliplatin (NSC266046), paclitaxel (NSC125973), and doxorubicin (NSC123127), were obtained from the National Cancer Institute (NCI) Developmental Therapeutics Program Chemical Repository. The FDA-approved anticancer drug set is available from the Developmental Therapeutics Program at https://dtp.cancer.gov/organization/dscb/obtaining/available plates.htm. […] The stock solutions were prepared in dimethyl sulfoxide (DMSO, Sigma-Aldrich, St. Louis, MO, cat. D2650), except for the platinum complexes which were prepared in saline (Quality Biological, Gaithersburg, MD, cat. 114-055-101), at 800-fold the tested concentration and stored at -70 degrees C prior to their use. All drugs and investigational agents were tested over a range starting from a high concentration at or near the clinical Cmax and decreasing in half-log increments. If the clinical Cmax for an agent had not been determined, the highest concentration tested was 10 microM.
Cell Culture. All cells were maintained in an incubator at 37 degrees C and 5% CO2 with 95% humidity. The PDC lines were cultured according to standard operating procedures established by the NCI PDMR. Briefly, all PDCs were thawed and cultured in Matrigel-coated flasks prepared with a working solution of 1X Ham's F-12 nutrient mix, without supplementation (Invitrogen, Waltham, MA, cat. 11765054), 100 U/mL penicillin-streptomycin (Invitrogen, cat. 15140122), and 2.5% Matrigel (Corning Inc., Corning, NY, cat. 354248) for the first three passages. The 947758-054-R-J2-PDC line was cultured in 6B/Colon 1A media, which includes advanced DMEM/F-12 (Thermo Fisher Scientific, cat. 12634028), 10 mM HEPES (Thermo Fisher Scientific, cat. 15630080), 1X GlutaMAX supplement (Thermo Fisher Scientific, cat. 35050061), 0.1 mg/mL primocin (InvivoGen, cat. ant-pm-2), 10% defined fetal bovine serum, heat inactivated (HyClone Laboratories Inc., cat. SH30070.03HI), 1.25 mM N-Acetyl-L-cysteine (Sigma-Aldrich, cat. A9165), 10 mM nicotinamide (Sigma-Aldrich, cat. N0636), 1X B-27 supplement (Thermo Fisher Scientific, cat. 17504044), 1X N-2 supplement (Thermo Fisher Scientific, cat. 17502048), and 10 microM Y-27632 dihydrochloride (Tocris Bioscience, cat. 1254). The 876862-298-R-J1-PDC was cultured in 6E media, which includes all 6B/Colon 1A media components plus 50% L-WRN conditioned media (ATCC, cat. CRL-3276), 50 ng/mL recombinant human EGF recombinant protein (hEGF; Thermo Fisher Scientific, cat. PHG0311), 10 ng/mL recombinant human fibroblast growth factor 10 (hGFG-10; PeproTech, cat. 100-26), 1 ng/mL recombinant human fibroblast growth factor 2 (hFGF-2; PeproTech, cat. 100-18B), and 1 µM prostaglandin E2 (PGE2; Tocris, cat. 2296). The 227483-062-R1-J1-PDC line was cultured in Panc media, containing all 6E components except hFGF-2, with the addition of 500 nM SB-431542 (Selleckchem, cat. S1067) and 10 nM gastrin (Tocris, cat. 3006). […]

[1] = curve of first compound, second compound 0.0316 µM
[2] = curve of first compound, second compound 0.1 µM
[3] = curve of first compound, second compound 0.316 µM
[4] = curve of first compound, second compound 1 µM
[5] = curve of first compound, second compound 3.16 µM
[6] = curve of first compound, second compound 10 µM
[7] = second compound 0.0316 µM, first compound 0.0316 µM
[8] = second compound 0.0316 µM, first compound 0.1 µM
[9] = second compound 0.0316 µM, first compound 0.316 µM
[10] = second compound 0.0316 µM, first compound 1 µM
[11] = second compound 0.0316 µM, first compound 3.16 µM
[12] = second compound 0.0316 µM, first compound 10 µM
[13] = second compound 0.1 µM, first compound 0.0316 µM
[14] = second compound 0.1 µM, first compound 0.1 µM
[15] = second compound 0.1 µM, first compound 0.316 µM
[16] = second compound 0.1 µM, first compound 1 µM
[17] = second compound 0.1 µM, first compound 3.16 µM
[18] = second compound 0.1 µM, first compound 10 µM
[19] = second compound 0.316 µM, first compound 0.0316 µM
[20] = second compound 0.316 µM, first compound 0.1 µM
[21] = second compound 0.316 µM, first compound 0.316 µM
[22] = second compound 0.316 µM, first compound 1 µM
[23] = second compound 0.316 µM, first compound 3.16 µM
[24] = second compound 0.316 µM, first compound 10 µM
[25] = second compound 1 µM, first compound 0.0316 µM
[26] = second compound 1 µM, first compound 0.1 µM
[27] = second compound 1 µM, first compound 0.316 µM
[28] = second compound 1 µM, first compound 1 µM
[29] = second compound 1 µM, first compound 3.16 µM
[30] = second compound 1 µM, first compound 10 µM
[31] = second compound 3.16 µM, first compound 0.0316 µM
[32] = second compound 3.16 µM, first compound 0.1 µM
[33] = second compound 3.16 µM, first compound 0.316 µM
[34] = second compound 3.16 µM, first compound 1 µM
[35] = second compound 3.16 µM, first compound 3.16 µM
[36] = second compound 3.16 µM, first compound 10 µM
[37] = second compound 10 µM, first compound 0.0316 µM
[38] = second compound 10 µM, first compound 0.1 µM
[39] = second compound 10 µM, first compound 0.316 µM
[40] = second compound 10 µM, first compound 1 µM
[41] = second compound 10 µM, first compound 3.16 µM
[42] = second compound 10 µM, first compound 10 µM
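Further: spheroids exposed to the agents for seven days.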
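Wherever viability, T/C is given: 100% = DMSO vehicle control viability.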

CC(Nc1ccc2c(c1)OCCn1cc(N3C(=O)OCC3C(F)F)nc1-2)C(N)=O (stereo not given) + CNC(=O)c1ccc(Nc2nc(OC3CCCC3)c3c(-c4ccc5nc(C)oc5c4)c[nH]c3n2)c(OC)c1
IC50 [1]: 0.452 µM | IC50 [2]: 0.399 µM | IC50 [3]: 0.0494 µM | IC50 [4]: < 0.0316 µM | IC50 [5]: < 0.0316 µM | IC50 [6]: < 0.0316 µM | viability, T/C [7]: 76.8% | viability, T/C [8]: 61% | viability, T/C [9]: 44.5% | viability, T/C [10]: 53.9% | viability, T/C [11]: 33.1% | viability, T/C [12]: 23.1% | viability, T/C [13]: 49.9% | viability, T/C [14]: 64.9% | viability, T/C [15]: 47.7% | viability, T/C [16]: 43% | viability, T/C [17]: 26.4% | viability, T/C [18]: 19.2% | viability, T/C [19]: 52.7% | viability, T/C [20]: 47% | viability, T/C [21]: 34.1% | viability, T/C [22]: 27.9% | viability, T/C [23]: 24.6% | viability, T/C [24]: 15.8% | viability, T/C [25]: 47.5% | viability, T/C [26]: 30% | viability, T/C [27]: 28.1% | viability, T/C [28]: 24.3% | viability, T/C [29]: 19.3% | viability, T/C [30]: 8.72% | viability, T/C [31]: 48.3% | viability, T/C [32]: 36.1% | viability, T/C [33]: 27.2% | viability, T/C [34]: 18.9% | viability, T/C [35]: 10.7% | viability, T/C [36]: 8.42% | viability, T/C [37]: 33.4% | viability, T/C [38]: 29.9% | viability, T/C [39]: 18.1% | viability, T/C [40]: 17.7% | viability, T/C [41]: 13.9% | viability, T/C [42]: 7.86%

Cn1ncnc1[C@H]1c2n[nH]c(=O)c3cc(F)cc(c23)N[C@@H]1c1ccc(F)cc1
viability, T/C (compound 0.000316 µM): 87.6% and 89% | viability, T/C (compound 0.001 µM): 88.1% and 94.1% | viability, T/C (compound 0.00316 µM): 91.8% and 78.8% | viability, T/C (compound 0.01 µM): 80.4% and 83% | viability, T/C (compound 0.0316 µM): 60.7% and 65.9% | viability, T/C (compound 0.1 µM): 57% and 63.1% | IC50 (curve of compound): > 0.1 µM

C#Cc1c(F)ccc2cc(O)cc(-c3ncc4c(N5CC6CCC(C5)N6)nc(OCC56CCCN5CC(F)C6)nc4c3F)c12 (stereo not given)
viability, T/C (compound 0.0316 µM): 110% and 91.8% | viability, T/C (compound 0.1 µM): 86.9% and 94% | viability, T/C (compound 0.316 µM): 79.3% and 89.4% | viability, T/C (compound 1 µM): 89.2% and 83.5% | viability, T/C (compound 3.16 µM): 109% and 96.9% | viability, T/C (compound 10 µM): 99.2% and 101% | IC50 (curve of compound): > 10 µM

Nc1ccccc1NC(=O)c1ccc(CNC(=O)OCc2cccnc2)cc1 + CNC(=O)c1ccc(Nc2nc(OC3CCCC3)c3c(-c4ccc5nc(C)oc5c4)c[nH]c3n2)c(OC)c1
IC50 [1]: 0.572 µM | IC50 [2]: 0.293 µM | IC50 [3]: 0.337 µM | IC50 [4]: 0.141 µM | IC50 [5]: 0.0676 µM | IC50 [6]: 0.0507 µM | viability, T/C [7]: 115% | viability, T/C [8]: 91.2% | viability, T/C [9]: 64.9% | viability, T/C [10]: 42% | viability, T/C [11]: 3.29% | viability, T/C [12]: 1.7% | viability, T/C [13]: 70% | viability, T/C [14]: 66.3% | viability, T/C [15]: 45.7% | viability, T/C [16]: 30.2% | viability, T/C [17]: 3.46% | viability, T/C [18]: 5.63% | viability, T/C [19]: 58.1% | viability, T/C [20]: 59.4% | viability, T/C [21]: 46% | viability, T/C [22]: 34.6% | viability, T/C [23]: 4.74% | viability, T/C [24]: 8.02% | viability, T/C [25]: 64.6% | viability, T/C [26]: 50.3% | viability, T/C [27]: 41.3% | viability, T/C [28]: 28.1% | viability, T/C [29]: 4.08% | viability, T/C [30]: 0.99% | viability, T/C [31]: 49.8% | viability, T/C [32]: 53.3% | viability, T/C [33]: 35.8% | viability, T/C [34]: 23.8% | viability, T/C [35]: 3.27% | viability, T/C [36]: 0.11% | viability, T/C [37]: 57.1% | viability, T/C [38]: 38.4% | viability, T/C [39]: 29.6% | viability, T/C [40]: 22.6% | viability, T/C [41]: 2.77% | viability, T/C [42]: 0.3%

CC(C)CC(NC(=O)C(Cc1ccccc1)NC(=O)c1cnccn1)B(O)O (stereo not given)
viability, T/C (compound 0.000949 µM): 26.8% and 12.1% | viability, T/C (compound 0.003 µM): 0.63% and 0.17% | viability, T/C (compound 0.00949 µM): 0.23% and 0.71% | viability, T/C (compound 0.03 µM): 0.23% and 2.41% | viability, T/C (compound 0.0949 µM): 0.31% and 0.16% | viability, T/C (compound 0.3 µM): 2.09% and 0.42% | IC50 (curve of compound): < 0.000949 µM
